Drawing on PubChem BioAssay AID1259333 (Broad Institute, 2017), this text covers activity change, negative = cytotoxicity for 66 compounds.

Calls of active or inactive are those of the source. The rule behind the calls is not given here; tested in parental BL2 cells.

One test is described as follows: loss of cell viability by ATP content – CellTiter-Glo, cytotoxicity control, dose response (AID 1259333).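 Note: 0% = vehicle neutral controls and -100% = reference inhibitor positive controls.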 The conditions noted are these: cytotoxicity, CellTiter-Glo ATP luminescence; at 3.5 µM (top of the series). For orientation: Cellular ATP, detected with luciferase, serves as a proxy for viable cell number.
Regarding `N#C[C@H]1[C@H](c2ccc(C#CC3CCCCC3)cc2)[C@@H](CO)N1C(=O)Nc1ccc(F)cc1`, the activity change, negative = cytotoxicity is 25.8% (inactive).

`C[C@@H]1CCCCO[C@@H](CN(C)C(=O)C2CCCCC2)[C@@H](C)CN([C@H](C)CO)C(=O)c2cc(NS(=O)(=O)c3ccccc3)ccc2O1`: the activity change, negative = cytotoxicity is 22.5% (inactive).

`C[C@@H]1CCCCO[C@@H](CN(C)CC2CCCCC2)[C@@H](C)CN([C@@H](C)CO)C(=O)c2cc(NC(=O)Nc3ccc(C(F)(F)F)cc3)ccc2O1`: the activity change, negative = cytotoxicity is 15% (inactive). Same read-out and setting: for `C[C@]12CC[C@H](O)C[C@H]1CC[C@@H]1[C@@H]2CC[C@]2(C)[C@@H](c3ccc(=O)oc3)CC[C@]12O` the value was 25.8% (inactive); for `COc1cccc(S(=O)(=O)N(C)C[C@H]2OCc3ccccc3-c3c(n(C)c4ccccc34)C(=O)N([C@@H](C)CO)C[C@H]2C)c1`, 15.7% (inactive).

The test is the same for the next values; noted with them: cytotoxicity, CellTiter-Glo ATP luminescence; at 10 µM (top of the series).
As to `c1ccc(CCSc2nccn2-c2ccccc2)cc1`, the activity change, negative = cytotoxicity is 33.3% (inactive). The same measure, in the same setting: as for `CO[C@@H](CN(C)S(=O)(=O)c1ccc(Cl)cc1)[C@H](C)CN(Cc1ccccc1Cl)[C@@H](C)CO`, the figure is 1.13% (inactive). `CC(C)CC#Cc1ccc([C@@H]2[C@H]3CN(C(=O)Nc4ccccc4)CCCCN3[C@H]2CO)cc1`: the activity change, negative = cytotoxicity was 40.2% (inactive). For `O=C(CN1C(=O)c2ccccc2S1(=O)=O)Nc1ncc(Cl)cc1Cl`, the activity change, negative = cytotoxicity is 30.7% (inactive). As to `CC(C)Cc1ccc(C(C)/C=C2/CCC(CN3CCCCC3)C2=O)cc1` (stereo unspecified), the activity change, negative = cytotoxicity is 26.2% (inactive).

Take `C[C@@H]1CN([C@@H](C)CO)C(=O)c2c(c3ccccc3n2C)-c2ccccc2CO[C@H]1CN(C)Cc1cccc(C(=O)Nc2ccccc2N)c1`: the activity change, negative = cytotoxicity is 26.3% (inactive). The same measure, in the same setting: for `Oc1c(Cl)cc(Cl)cc1Sc1cc(Cl)cc(Cl)c1O` the value was 11% (inactive); for `Cc1ccc2c(c1)C(O)(CC(=O)/C=C/C=C/c1ccccc1)C(=O)N2` (stereo unspecified), 24.8% (inactive); for `N#C[C@@H]1[C@H](c2ccc(C#Cc3ccccc3F)cc2)[C@@H](CO)N1C(=O)C1CC1`, 38% (inactive). Same read-out and setting: as for `CC[C@H]1CN2CCc3cc(OC)c(OC)cc3C2C[C@@H]1CC1NCCc2cc(OC)c(OC)cc21` (stereo partly specified), the figure is -31.6% (inactive). On the same count and under the same terms, as for `COc1ccc2c3c(n(C)c2c1)[C@H](CO)N(C(=O)Nc1ccc(F)cc1)CC31CCN(C(=O)Nc2ccc(F)cc2F)CC1`, the figure is 29.2% (inactive). Regarding `COc1cccc2c1C(=O)c1c(O)c3c(c(O)c1C2=O)C[C@@](O)(C(C)=O)C[C@@H]3O[C@H]1C[C@H](N)[C@H](O)[C@H](C)O1`, the activity change, negative = cytotoxicity is 13.8% (inactive). As for `CCCNC(=O)c1cc2c(c(-c3cccc(-c4cc5ccccc5o4)c3)n1)[C@H](CCO)N(C(=O)NC(C)C)C2`, the activity change, negative = cytotoxicity was 109% (inactive). Still for that read-out and setting: as for `N#Cc1cccc(-c2ccc(C3[C@@H]4CN(C(=O)Nc5ccc(C(F)(F)F)cc5)C[C@H]3N4)cc2)c1` (stereo partly specified), the figure is -11.5% (inactive); as for `CCCCn1c(NC(=O)c2ccc(Br)o2)c(S(=O)(=O)c2ccccc2)c2nc3ccccc3nc21`, 62.4% (inactive); as for `O=C(c1nnsc1S(=O)(=O)c1ccc(Cl)cc1)N1CCOCC1`, 40.8% (inactive). Still for that read-out and setting: for `Oc1cc2c(cc1C(c1ccc(Br)cc1)N1CCCC1)OCO2` (stereo unspecified) the value was 7.99% (inactive); for `CC1CC(C)C(=O)C(C(CC2CC(=O)NC(=O)C2)OC(=O)CC(=O)c2ccccc2)C1` (stereo unspecified), 11.5% (inactive); for `Cc1cc(C)c2c(c1)SC1=NC(c3ccccc3)(C(F)(F)F)NC(=O)N12` (stereo unspecified), 30.7% (inactive).

`O=C(CNC(=O)c1ccco1)Nc1ccc2c(c1)OCCO2`: the activity change, negative = cytotoxicity was -6.17% (inactive).

`O=C(C[C@@H]1C[C@H]2c3cc(NC(=O)Nc4ccc(C(F)(F)F)cc4)ccc3O[C@H]2[C@H](CO)O1)NCc1cc(F)ccc1F`: the activity change, negative = cytotoxicity is 31.2% (inactive). With `C[C@@H]1CN([C@@H](C)CO)C(=O)c2cc(C#CCc3ccccc3)cnc2O[C@@H]1CN(C)C(=O)C1CCOCC1`, the activity change, negative = cytotoxicity was 5.87% (inactive). With `CC1CCCC=CC2CC(OC(=O)CN(C)C)CC2C(O)C=CC(=O)O1` (stereo unspecified), the activity change, negative = cytotoxicity is 53.7% (inactive). In the case of `CC12CN3CC(C)(CN(C1)C3c1ccc3c(c1)OCO3)C2=O` (stereo unspecified), the activity change, negative = cytotoxicity is 48.6% (inactive). Regarding `CC(OC(=O)c1cc(Br)ccc1O)C(=O)Nc1ccc(S(=O)(=O)N2CCCC2)cc1` (stereo unspecified), the activity change, negative = cytotoxicity is 47% (inactive). Take `C(=Cc1c[nH]c2ccccc12)c1nccc2ccccc12`: the activity change, negative = cytotoxicity was 33.1% (inactive). Turning to `O=C(Nc1ccc2c(c1)OCCO2)C1CCCC1`, the activity change, negative = cytotoxicity was 9.1% (inactive). The same measure, in the same setting: for `CC12CC[C@H]3[C@@H](CCC4(O)C[C@H](O)CCC34/C=N/NC(=O)Cc3ccccc3)C1(O)CCC2C1=CC(=O)OC1` (stereo partly specified) the value was 25% (inactive); for `CCc1cnc(N2[C@H](C#N)[C@@H](c3ccccc3C3=CCCC3)[C@@H]2CO)s1`, -4.08% (inactive).

Consider `c1ccc(-c2ccc(-c3ccccn3)nn2)nc1`, for which the activity change, negative = cytotoxicity is -10.2% (inactive). In the case of `Cc1ccc2nc(-c3cc(-c4ccccc4)no3)cn2c1`, the activity change, negative = cytotoxicity was 51.5% (inactive). Same read-out and setting: as for `CCc1csc(N2[C@H](C#N)[C@H](c3ccc(C#Cc4ccc(F)cc4)cc3)[C@H]2CO)n1`, the figure is 30% (inactive); as for `CC(=O)[C@]1(O)Cc2c(O)c3c(c(O)c2[C@@H](O[C@H]2C[C@H](N)[C@H](O)[C@H](C)O2)C1)C(=O)c1ccccc1C3=O`, -5.56% (inactive).

`COc1ccccc1NC(c1cccnc1)c1ccc2cccnc2c1O` (stereo unspecified): the activity change, negative = cytotoxicity was 123% (inactive).

For the compound `CC(C)OC(=O)CC1C(=O)NCCN1C(=S)NC(=O)c1cccs1` (stereo unspecified), the activity change, negative = cytotoxicity was 19.9% (inactive). For the compound `O=S(c1ccccc1O)S(=O)c1ccccc1O` (stereo unspecified), the activity change, negative = cytotoxicity is 40.7% (inactive). In the case of `Cc1ccc2nc(C(F)(F)F)c(C#N)c(N)c2c1`, the activity change, negative = cytotoxicity was 1.7% (inactive). In the case of `Cc1ccc(S(=O)(=O)CCC(=O)N(CCCN2CCOCC2)c2nc3ccccc3s2)cc1`, the activity change, negative = cytotoxicity was 29.5% (inactive).

With `COc1cccc(S(=O)(=O)N(C)C[C@H]2OCc3ccccc3-c3c(n(C)c4ccccc34)C(=O)N([C@H](C)CO)C[C@@H]2C)c1`, the activity change, negative = cytotoxicity is 20.3% (inactive). For the compound `O=C(COc1cccnc1[N+](=O)[O-])c1ccc(Cl)s1`, the activity change, negative = cytotoxicity was 33.6% (inactive).

For `O=C1C(Br)=C(c2ccccc2)C(c2ccccc2)=C1c1ccccc1`, the activity change, negative = cytotoxicity was -18.2% (inactive). For `O=C(C[C@H]1CC[C@@H]2[C@H](COC[C@H](O)CN2Cc2cc(F)ccc2F)O1)NCc1ccc(Oc2ccccc2)cc1`, the activity change, negative = cytotoxicity is 17% (inactive). `C[C@H](CO)N1C[C@H](C)[C@@H](CN(C)Cc2ccc(Cl)c(Cl)c2)OCCCC[C@H](C)Oc2ccc(NS(=O)(=O)c3cccs3)cc2C1=O`: the activity change, negative = cytotoxicity is 9.11% (inactive). For the compound `O=S(=O)(CCSc1ccccn1)c1nc2ccccc2s1`, the activity change, negative = cytotoxicity is 55.1% (inactive).

For `CC1CC(C)(C)Nc2ccc(OC(=O)c3ccco3)cc21` (stereo unspecified), the activity change, negative = cytotoxicity was 203% (inactive).

Consider `CC[C@@]1(O)C(=O)OCc2c1cc1n(c2=O)Cc2cc3cc(O)ccc3nc2-1`, for which the activity change, negative = cytotoxicity is 12.3% (inactive). Regarding `CCCCCCCCCc1ccc(OCCOCCOCCOCCOCCOCCOCCOCCOCCO)cc1`, the activity change, negative = cytotoxicity was 13.3% (inactive). Regarding `O=C1C[C@H](c2ccccc2)C(=O)N[C@@H](c2ccccc2)C/C=C\C[C@@H](c2ccccc2)N1`, the activity change, negative = cytotoxicity is 72.2% (inactive). Regarding `COc1ccc2c3c([nH]c2c1)[C@H](CO)N(C(=O)Nc1cccc(F)c1)CC31CCN(S(=O)(=O)c2cccc(C)c2)CC1`, the activity change, negative = cytotoxicity is 35% (inactive). Turning to `COc1ccc(S(=O)(=O)N(C)C[C@@H]2Oc3ccc(NC(=O)Nc4ccc(C(F)(F)F)cc4)cc3C(=O)N([C@@H](C)CO)C[C@@H]2C)cc1`, the activity change, negative = cytotoxicity is 84.5% (inactive). Consider `CC(=NNC(=S)N1CC2CCC(CC2)C1)c1nccs1`, for which the activity change, negative = cytotoxicity was 126% (inactive). On to `O=C(COC(=O)c1ccccc1)c1ccc2c(c1)OCCO2`, for which the activity change, negative = cytotoxicity was 21.1% (inactive). `N#C[C@H]1[C@@H](c2ccccc2-c2ccccc2)[C@@H](CO)N1C(=O)NC1CCCC1`: the activity change, negative = cytotoxicity was -17.1% (inactive). For `COC(=O)c1ccc2c(=O)[nH]c(COC(=O)c3c(-c4ccccc4)noc3C)nc2c1`, the activity change, negative = cytotoxicity was 11% (inactive). On to `CC1CC(C)CC(C)C(O)C(C#N)=CC=CCC(C2CCCC2C(=O)O)OC(=O)CC(O)C(C)C1` (stereo unspecified), for which the activity change, negative = cytotoxicity was -8.2% (inactive). For the compound `C[C@@H]1CN([C@@H](C)CO)C(=O)Cc2cc(NS(=O)(=O)c3ccc(F)cc3)ccc2O[C@H]1CN(C)Cc1ccc(C(F)(F)F)cc1`, the activity change, negative = cytotoxicity is 20.6% (inactive). On to `COc1ccc(S(=O)(=O)N(C)C[C@H]2Oc3ccc(NC(=O)Nc4ccc(C(F)(F)F)cc4)cc3C(=O)N([C@@H](C)CO)C[C@H]2C)cc1`, for which the activity change, negative = cytotoxicity is 24.4% (inactive). On the same count and under the same terms, as for `O=C(C#Cc1ccccc1)c1ccccc1`, the figure is 43.8% (inactive); as for `O=C(CCN1CCC(c2ccccc2)C1)c1ccc2c(c1)OCCO2` (stereo unspecified), 28% (inactive); as for `CCCNC(=O)N1[C@H](CO)[C@H](c2ccc(-c3cccc(OC)c3)cc2)[C@@H]1C#N`, 27% (inactive).

The test is the same for the next values; noted with them: cytotoxicity, CellTiter-Glo ATP luminescence; at 11 µM (top of the series).
Turning to `N#C[C@@H]1[C@@H](c2ccccc2-c2ccc(F)cc2)[C@H](CO)N1C(=O)NC1CCCCC1`, the activity change, negative = cytotoxicity was 19.3% (inactive).
